Results as given in patent publication US11311542B2, “Inhibitors of cyclin dependent kinase 7 (CDK7)” (Syros Pharmaceuticals, Inc., priority 2018, dated 2022).
Where two headings read alike, the source gives them in different places.

How the values were obtained:
[1] = molecular target: CDK7/Cyclin H/MAT1 complex (Homo sapiens, UniProt P50613); assay: CDK7 kinase inhibition assay (Caliper/LabChip EZ Reader)
Description: (§2) Compounds described herein were assayed for inhibition of CDK7, CDK9, CDK12, and CDK2 activity at Biortus Biosciences (Jiangyin, Jiangsu Province, P.R. of China) using kinase assays for each CDK developed with a Caliper/LabChip EZ Reader (Perkin Elmer, Waltham, Mass.).
(§3) Furthermore, the CDK9 inhibition assay used CDK9/Cyclin T1 complex (8 nM) and “5-FAM-CDK9tide” peptide substrate (2 μM, synthesized fluorophore-labeled peptide with the following sequence: 5-FAM-GSRTPMY-NH2 (SEQ ID NO:2) where 5-FAM is defined above and NH2 signifies a C-terminal amide) with 10 mM MgCl2 in the buffer composition listed above. The CDK12 inhibition assay used CDK12 (aa686-1082)/Cyclin K complex (50 nM) and “5-FAM-CDK9tide” (2 μM) as defined above, with 2 mM MgCl2 in the buffer composition above. Additionally, the CDK2 inhibition assay used CDK2/Cyclin E1 complex (0.5 nM) and “5-FAM-CDK7tide” (2 μM; defined above) with 2 mM MgCl2 in the buffer composition above.
(§4) The incubation period at 27° C. for each CDK inhibition assay was chosen such that the fraction of phosphorylated peptide product produced in each assay, relative to the total peptide concentration, was approximately 20% (±5%) for the uninhibited kinase (35 min. for CDK7, 35 min. for CDK2, 3 hr. for CDK12, 15 min. for CDK9).

[2] = molecular target: CDK2/Cyclin E1 complex (Homo sapiens, UniProt P24941); assay: CDK2 kinase inhibition assay (Caliper/LabChip EZ Reader)
Description: as §2, §3, §4

[3] = molecular target: CDK9/Cyclin T1 complex (Homo sapiens, UniProt P50750); assay: CDK9 kinase inhibition assay (Caliper/LabChip EZ Reader)
[4] = test system: COV504 cells; assay: Inhibition of cell proliferation (CyQUANT Direct), COV504; format: cell-based, human; conditions: COV504, 72-hour
Description: (§1) HCC70 and MB453 cells are cell lines derived from human triple negative breast cancer COV318 and COV504 cells are cell lines derived from human ovarian cancer. Representative compounds of the invention were tested at different concentrations (from 4 μM to 126.4 pM; 0.5 log serial dilutions) for their ability to inhibit the proliferation of each of these cell lines. Known CDK inhibitors dinaciclib or N-((1S,3R)-3-((5-chloro-4-(1H-indol-3-yl) pyrimidin-2-yl)amino)cyclohexyl)-5-((E)-4-(dimethylamino)but-2-enamido)picolinamide and triptolide were used as positive controls. Cells were seeded at approximately 2,000 cells/well and grown in ATCC-formulated RPMI-1640 Medium (ATCC 30-2001)+10% FBS. The cells were cultured at 37° C. in a humidified chamber in the presence of 5% CO2. Proliferation assays were conducted over a 72-hour time period. CyQUANT® Direct Cell Proliferation Assay (Life Technologies, Chicago, Ill. USA) was used to assess the anti-proliferative effects of the compounds following manufacturer's directions and utilizing the reagents supplied with the CyQUANT® Direct Cell kit.

[5] = test system: COV318 cells; assay: Inhibition of cell proliferation (CyQUANT Direct), COV318; format: cell-based, human; conditions: COV318, 72-hour
Description: as §1

[6] = test system: HCC70 cells; assay: Inhibition of cell proliferation (CyQUANT Direct), HCC70; format: cell-based, human; conditions: HCC70, 72-hour
Description: as §1

[7] = test system: MB453 cells; assay: Inhibition of cell proliferation (CyQUANT Direct), MB453; format: cell-based, human; conditions: MB453, 72-hour
Description: as §1

[8] = molecular target: CDK12 (aa686-1082)/Cyclin K complex (Homo sapiens, UniProt Q9NYV4); assay: CDK12 kinase inhibition assay (Caliper/LabChip EZ Reader)
Description: as §2, §3, §4

[9] = read-out: CDK7 IC50, CDK7/Cyclin H/MAT1 6 nM, ATP 2 mM, 35 min at 27° C.
[10] = read-out: CDK2 IC50, CDK2/Cyclin E1 0.5 nM, ATP 2 mM, 35 min at 27° C.
[11] = read-out: CDK9 IC50, CDK9/Cyclin T1 8 nM, ATP 2 mM, 15 min at 27° C.
[12] = read-out: CDK12 IC50, CDK12 (aa686-1082)/Cyclin K 50 nM, ATP 2 mM, 3 hr at 27° C.

Chain of CDK7/Cyclin H/MAT1 complex (P50613 whole entry): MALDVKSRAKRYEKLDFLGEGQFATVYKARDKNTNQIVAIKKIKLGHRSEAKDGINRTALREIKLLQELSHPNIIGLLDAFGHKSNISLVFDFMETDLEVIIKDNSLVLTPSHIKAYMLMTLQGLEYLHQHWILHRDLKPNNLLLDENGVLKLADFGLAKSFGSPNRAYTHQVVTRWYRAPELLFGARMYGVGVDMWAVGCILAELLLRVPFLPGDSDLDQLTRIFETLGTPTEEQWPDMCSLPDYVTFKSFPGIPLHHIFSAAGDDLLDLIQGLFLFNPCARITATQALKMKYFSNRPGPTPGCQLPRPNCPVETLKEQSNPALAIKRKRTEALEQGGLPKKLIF
Chain of CDK7/Cyclin H/MAT1 complex (P51946 whole entry partner): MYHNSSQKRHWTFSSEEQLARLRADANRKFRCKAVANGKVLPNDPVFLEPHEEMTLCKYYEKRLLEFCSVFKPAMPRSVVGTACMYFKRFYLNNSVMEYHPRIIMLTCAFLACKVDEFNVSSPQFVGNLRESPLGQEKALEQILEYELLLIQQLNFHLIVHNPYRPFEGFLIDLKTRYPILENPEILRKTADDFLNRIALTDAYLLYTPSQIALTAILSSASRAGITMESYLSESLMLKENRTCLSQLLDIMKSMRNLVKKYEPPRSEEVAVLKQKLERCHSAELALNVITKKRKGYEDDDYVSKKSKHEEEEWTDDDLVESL
Chain of CDK7/Cyclin H/MAT1 complex (P51948 whole entry partner): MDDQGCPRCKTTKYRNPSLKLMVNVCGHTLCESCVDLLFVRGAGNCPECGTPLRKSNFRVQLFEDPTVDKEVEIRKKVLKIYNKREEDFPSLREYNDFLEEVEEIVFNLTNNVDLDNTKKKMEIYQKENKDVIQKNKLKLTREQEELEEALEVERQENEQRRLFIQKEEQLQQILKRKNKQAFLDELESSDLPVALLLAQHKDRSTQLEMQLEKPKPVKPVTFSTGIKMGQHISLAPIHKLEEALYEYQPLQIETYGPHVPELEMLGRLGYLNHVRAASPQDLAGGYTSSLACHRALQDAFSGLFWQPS
Chain of CDK12 (aa686-1082)/Cyclin K complex (Q9NYV4 686-1082): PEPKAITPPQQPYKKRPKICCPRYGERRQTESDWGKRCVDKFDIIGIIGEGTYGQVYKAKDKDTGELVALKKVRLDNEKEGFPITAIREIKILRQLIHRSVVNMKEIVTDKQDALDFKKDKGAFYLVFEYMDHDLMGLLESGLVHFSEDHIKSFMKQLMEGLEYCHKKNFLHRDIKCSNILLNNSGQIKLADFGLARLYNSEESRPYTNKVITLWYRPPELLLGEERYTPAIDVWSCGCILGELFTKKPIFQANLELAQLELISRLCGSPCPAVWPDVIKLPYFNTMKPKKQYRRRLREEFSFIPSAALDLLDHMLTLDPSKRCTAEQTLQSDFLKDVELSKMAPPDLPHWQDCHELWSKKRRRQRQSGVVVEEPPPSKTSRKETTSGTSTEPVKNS
Chain of CDK12 (aa686-1082)/Cyclin K complex (O75909 whole entry partner, the tested form may be a part): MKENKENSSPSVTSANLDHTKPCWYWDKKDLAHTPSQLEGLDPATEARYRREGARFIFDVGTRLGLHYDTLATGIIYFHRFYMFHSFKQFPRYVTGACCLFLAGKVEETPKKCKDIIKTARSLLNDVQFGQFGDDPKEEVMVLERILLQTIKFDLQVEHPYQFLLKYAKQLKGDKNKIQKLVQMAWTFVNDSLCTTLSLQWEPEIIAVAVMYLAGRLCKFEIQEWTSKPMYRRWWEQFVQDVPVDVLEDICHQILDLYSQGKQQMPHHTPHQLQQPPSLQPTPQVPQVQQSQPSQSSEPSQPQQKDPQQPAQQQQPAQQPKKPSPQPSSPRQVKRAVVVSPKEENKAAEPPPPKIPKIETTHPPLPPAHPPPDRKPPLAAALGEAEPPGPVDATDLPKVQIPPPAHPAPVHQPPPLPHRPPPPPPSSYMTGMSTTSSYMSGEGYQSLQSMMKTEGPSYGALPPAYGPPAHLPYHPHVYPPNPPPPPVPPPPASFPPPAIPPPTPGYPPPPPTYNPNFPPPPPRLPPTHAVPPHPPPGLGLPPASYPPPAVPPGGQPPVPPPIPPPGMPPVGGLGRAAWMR
Chain of CDK9/Cyclin T1 complex (P50750 whole entry): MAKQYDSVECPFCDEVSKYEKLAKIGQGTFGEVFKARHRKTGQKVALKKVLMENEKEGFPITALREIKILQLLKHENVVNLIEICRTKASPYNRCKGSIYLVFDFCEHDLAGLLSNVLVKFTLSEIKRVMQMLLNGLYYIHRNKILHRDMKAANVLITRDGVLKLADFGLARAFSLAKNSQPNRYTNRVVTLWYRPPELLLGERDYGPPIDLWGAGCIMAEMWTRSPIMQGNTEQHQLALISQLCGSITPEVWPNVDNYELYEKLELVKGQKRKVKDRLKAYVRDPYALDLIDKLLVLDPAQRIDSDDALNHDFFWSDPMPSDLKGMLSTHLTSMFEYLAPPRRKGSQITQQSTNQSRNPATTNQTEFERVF
Chain of CDK9/Cyclin T1 complex (O60563 whole entry partner): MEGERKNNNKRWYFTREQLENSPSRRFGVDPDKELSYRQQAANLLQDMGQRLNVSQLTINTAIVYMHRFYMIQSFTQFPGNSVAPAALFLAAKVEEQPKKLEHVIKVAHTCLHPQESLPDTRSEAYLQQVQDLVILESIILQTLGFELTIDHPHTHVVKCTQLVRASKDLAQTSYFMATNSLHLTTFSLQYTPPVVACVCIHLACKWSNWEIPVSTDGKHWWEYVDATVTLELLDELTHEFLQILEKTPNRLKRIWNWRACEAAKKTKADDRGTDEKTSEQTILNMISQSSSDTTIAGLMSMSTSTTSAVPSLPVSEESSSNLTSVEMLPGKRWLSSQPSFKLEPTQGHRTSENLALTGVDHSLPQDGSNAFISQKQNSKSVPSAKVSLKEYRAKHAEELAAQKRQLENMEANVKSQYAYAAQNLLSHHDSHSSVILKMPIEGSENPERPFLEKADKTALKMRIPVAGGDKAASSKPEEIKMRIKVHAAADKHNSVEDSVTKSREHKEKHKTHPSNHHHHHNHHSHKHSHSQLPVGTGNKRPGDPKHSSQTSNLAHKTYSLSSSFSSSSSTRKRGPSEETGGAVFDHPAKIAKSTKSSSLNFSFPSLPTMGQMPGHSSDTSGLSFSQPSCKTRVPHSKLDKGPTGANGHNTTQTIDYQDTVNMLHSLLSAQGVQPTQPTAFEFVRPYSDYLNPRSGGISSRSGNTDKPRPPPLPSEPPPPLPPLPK

| Compound | IC50 [1] [nM] | IC50 [2] [nM] | IC50 [3] [nM] | IC50 ([4]; Homo sapiens) [nM] | IC50 ([5]; Homo sapiens) [nM] | IC50 ([6]; Homo sapiens) [nM] | IC50 ([7]; Homo sapiens) [nM] | IC50 [8] [nM] | IC50 [1, 9] [nM] | IC50 [2, 10] [nM] | IC50 [3, 11] [nM] | IC50 [8, 12] [nM] | IC50 [4] [nM] | IC50 [5] [nM] | IC50 [6] [nM] | IC50 [7] [nM] |
| --- | --- | --- | --- | --- | --- | --- | --- | --- | --- | --- | --- | --- | --- | --- | --- | --- |
| Cc1noc(C)c1-c1ccc2c(-c3nc(N[C@@H]4CNC[C@H](O)C4)ncc3C(F)(F)F)c[nH]c2n1 [Compound 133, (3R,5S)-5-[[4-[6-(3,5-dimethylisoxazol-4-yl)-1H-pyrrolo[2,3-b]pyridin-3-yl]-5-(trifluoromethyl)pyrimidin-2-yl]amino]piperidin-3-ol] | < 30 | > 500 | > 500 | < 100 | 100 to 500 | < 100 | < 100 | > 500 |  |  |  |  |  |  |  |  |
| CO[C@@H]1CCNC[C@H]1Nc1ncc(C(F)(F)F)c(-c2c[nH]c3cc(-c4c(C)noc4C)ccc23)n1 (single isomer, unassigned) [Compound 127] | < 30 | > 500 | > 500 | < 100 | 100 to 500 | > 1000 | < 100 | > 500 |  |  |  |  |  |  |  |  |
| Cc1noc(C)c1-c1ccc2c(-c3nc(N[C@@H]4CN(C(=O)OC(C)(C)C)CC[C@@H]4C)ncc3C(F)(F)F)cn(S(=O)(=O)c3ccccc3)c2n1 (single isomer, unassigned) [Compound 143] |  |  |  | < 100 | > 1000 | < 100 | < 100 |  | < 30 | > 500 | > 500 | > 500 |  |  |  |  |
| (3S)-tert-butyl 3-((4-(6-(3,5-dimethylisoxazol-4-yl)-5-fluoro-1H-pyrrolo[2,3-b]pyridin-3-yl)-5-(trifluoromethyl)pyrimidin-2-yl)amino)piperidine-1-carboxylate [Compound 138] |  |  |  |  |  |  |  |  | < 30 | > 500 | > 500 | > 500 | < 100 | < 100 | < 100 | < 100 |
| 3-methyl-4-(3-(2-(methylthio)-5-(trifluoromethyl)pyrimidin-4-yl)-1-(phenylsulfonyl)-1H-pyrrolo[2,3-b]pyridin-6-yl)isoxazole [Compound 147] |  |  |  |  |  |  |  |  | < 30 | > 500 | > 500 | > 500 | < 100 | > 1000 | < 100 | < 100 |
| O[C@H]1CNC[C@@H](Nc2ncc(C(F)(F)F)c(-c3c[nH]c4cc(-c5nccs5)ccc34)n2)C1 [Compound 107] | < 30 | > 500 | > 500 | 100 to 500 | 100 to 500 | 100 to 500 | 100 to 500 | > 500 |  |  |  |  |  |  |  |  |
| (S)-tert-butyl 3-((4-(6-(3,5-dimethylisothiazol-4-yl)-1H-pyrrolo[2,3-b]pyridin-3-yl)-5-(trifluoromethyl)pyrimidin-2-yl)amino)piperidine-1-carboxylate [Compound 166] |  |  |  |  |  |  |  |  | < 30 | > 500 | > 500 | > 500 | < 100 | < 100 | < 100 | < 100 |
| Cc1noc(-c2ccc3c(-c4nc(N[C@H]5CCCNC5)ncc4C(F)(F)F)c[nH]c3c2)n1 [Compound 121, 4-[6-(3-methyl-1,2,4-oxadiazol-5-yl)-1H-indol-3-yl]-N-[(3S)-3-piperidyl]-5 (trifluoromethyl)pyrimidin-2-amine] | < 30 | > 500 | > 500 | < 100 | 100 to 500 | 100 to 500 | < 100 | > 500 |  |  |  |  |  |  |  |  |
| Cc1noc(C)c1-c1ccc2c(-c3nc(N[C@H]4CC[C@H](C)NC4)ncc3C(F)(F)F)c[nH]c2n1 [Compound 124, 4-[6-(3,5-dimethylisoxazol-4-yl)-1H-pyrrolo-[2,3-b]-pyridin-3-yl]-N-[(3S,6S)-6-methyl-3-piperidyl]-5-(trifluoromethyl)pyrimidin-2-amine] | < 30 | > 500 | > 500 | < 100 | < 100 | < 100 | < 100 | > 500 |  |  |  |  |  |  |  |  |
